Each structure is given as a SMILES string. ≈ marks a conversion by molar mass, not a printed value. Bounds are passed on as bounds.

Data set [1] in a line: DPPH free radical scavenging (antioxidant activity, electron donating ability). Conditions: 0.1 mM DPPH in methanol, 30 minutes at room temperature in the absence of light, absorbance at 517 nm.
Description: Butylated hydroxyl anisole (BHA) was used as a control.
The mixture was allowed to react at room temperature for 30 minutes in the absence of light, and then the absorbance at 517 nm was measured using an UV-visible spectrophotometer (SCINCO, Korea). As blank, a reaction product between 0.5 ml of 0.1 mM DPPH and 1.5 ml of methanol was used. Electron donating ability (DEA) was calculated using the following equation: Electron donating ability (DEA) %={1−(S/B)}×100 wherein S is the absorbance at 517 nm of the reaction product between DPPH and the sample, and B is the absorbance at 517 nm of the reaction product between DPPH and methanol.
The nature of data set [2]: Stability of ramalin in water by HPLC, alone or with vitamin C. Type of data set: physicochemical. Conditions: for stability (preserved amount by HPLC area) over maintenance time: FIG. 5.
Description: At varying points of time, 10 μl of a sample was analyzed by semi-preparative reverse phase HPLC using an Agilent Eclipse XDB-C18 column (4.6×150 mm). The solvent system used consisted of 0.1% formic acid-containing water (A line) and 0.1% formic acid-containing methanol (B line). The analysis was carried out for a total of 30 minutes under the following conditions: from 0% to 5% for 15 min, from 5% to 90% for 5 min, from 90% to 0% for 5 min, and finally, from 0% to 5 min. The flow rate was 0.7 ml/min.

Consider `COc1ccc(O)c(C(C)(C)C)c1` [Butylated hydroxyl anisole (BHA), Butylated hydroxyl anisole], for which, in data set [1], the IC50 values turned out to be 1.43 mg/L (≈ 7.93 µM).

Turning to `NC(CCC(=O)NNc1ccccc1O)C(=O)O` (stereo not drawn) [Synthesized ramalin, ramalin], the “stability (preserved amount by HPLC area) over maintenance time” value is recorded as “decomposed rapidly” in data set [2] (ramalin alone, stored in water at 25° C. and 38° C.); “stability of the ramalin was maintained” in data set [2] (ramalin mixed with vitamin C (L-ascorbic acid) 1:1 (each 1000 ppm), stored in water). The “stability at 38° C.” value in data set [2] (ramalin stored alone in water) is “completely disappear”; in data set [2] (ramalin stored together with vitamin C (1:1, each 1000 ppm) in water), “somewhat stable”. Further, the “time within which more than half of ramalin disappears” value in data set [2] (room temperature, ramalin alone) was at most 4 days.
